# Laboratory results reported in ChEMBL document CHEMBL1201862, “PubChem BioAssay data set” (2004).
# The source made the active and inactive calls.
# Key:
# [1] = target: T1, Short transient receptor potential channel 4 (Mus musculus, UniProt Q9QUQ5); test: mouse TRPC4 channel activators, dose response, cell-based, HEK293 TRPC4/mu-opioid, Fluo-4 calcium (AID 434937); type: functional
# T1 sequence (Q9QUQ5 whole entry): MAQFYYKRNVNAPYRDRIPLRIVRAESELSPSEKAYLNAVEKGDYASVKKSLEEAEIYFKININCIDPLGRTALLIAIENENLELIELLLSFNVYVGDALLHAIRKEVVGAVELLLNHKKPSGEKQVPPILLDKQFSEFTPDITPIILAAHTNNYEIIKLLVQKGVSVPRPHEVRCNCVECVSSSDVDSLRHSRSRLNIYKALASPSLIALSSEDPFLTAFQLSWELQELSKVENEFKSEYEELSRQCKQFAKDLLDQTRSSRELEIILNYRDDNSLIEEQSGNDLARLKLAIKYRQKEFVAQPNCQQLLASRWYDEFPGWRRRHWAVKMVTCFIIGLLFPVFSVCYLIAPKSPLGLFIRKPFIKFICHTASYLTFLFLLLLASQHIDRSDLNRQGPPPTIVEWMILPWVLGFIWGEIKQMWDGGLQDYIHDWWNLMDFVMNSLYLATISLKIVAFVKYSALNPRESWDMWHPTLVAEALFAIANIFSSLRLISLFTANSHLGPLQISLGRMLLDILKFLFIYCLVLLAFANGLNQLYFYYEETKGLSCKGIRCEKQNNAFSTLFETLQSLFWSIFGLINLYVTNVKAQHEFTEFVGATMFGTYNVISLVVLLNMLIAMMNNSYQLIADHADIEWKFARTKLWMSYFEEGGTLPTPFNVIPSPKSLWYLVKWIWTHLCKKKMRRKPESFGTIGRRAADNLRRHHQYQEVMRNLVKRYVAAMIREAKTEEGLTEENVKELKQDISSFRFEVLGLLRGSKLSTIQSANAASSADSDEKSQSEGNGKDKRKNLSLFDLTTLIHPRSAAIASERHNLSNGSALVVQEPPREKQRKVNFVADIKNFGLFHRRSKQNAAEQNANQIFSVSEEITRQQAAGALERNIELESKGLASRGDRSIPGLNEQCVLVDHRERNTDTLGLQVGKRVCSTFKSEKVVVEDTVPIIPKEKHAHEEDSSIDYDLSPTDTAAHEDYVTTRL
# [2] = target: Delta-type opioid receptor (Homo sapiens, UniProt P41143); test: Counterscreen for agonists of heterodimerization of the mu 1 (OPRM1) and delta 1 (OPRD1) opioid receptors: Luminescence-based cell-based high throughput dose response assay to identify agonists of OPRD1 homodimerization. [Related pubchem assays (depositor defined):AID504326, AID504355, AID504692, AID504904, AID504905]; type: functional
# Chain of Delta-type opioid receptor (P41143 whole entry): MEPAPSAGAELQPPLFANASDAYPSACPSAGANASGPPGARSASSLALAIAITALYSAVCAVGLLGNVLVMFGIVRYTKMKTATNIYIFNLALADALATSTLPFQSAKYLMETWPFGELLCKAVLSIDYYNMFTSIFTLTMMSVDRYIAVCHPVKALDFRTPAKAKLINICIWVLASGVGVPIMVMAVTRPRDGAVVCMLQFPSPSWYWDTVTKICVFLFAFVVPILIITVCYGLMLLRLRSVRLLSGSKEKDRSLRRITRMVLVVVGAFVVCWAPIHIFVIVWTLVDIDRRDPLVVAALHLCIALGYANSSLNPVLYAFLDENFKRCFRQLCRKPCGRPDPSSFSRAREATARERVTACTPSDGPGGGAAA
# Mu-type opioid receptor = Mu-type opioid receptor (Homo sapiens, UniProt P35372); test: Counterscreen for agonists of heterodimerization of the mu 1 (OPRM1) and delta 1 (OPRD1) opioid receptors: Luminescence-based cell-based high throughput dose response assay to identify agonists of OPRM1 homodimerization.; type: functional;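 note: U2OS cells expressing OPRM1 and beta-arrestin as split beta-galactosidase partners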
# Chain of Mu-type opioid receptor (P35372 whole entry): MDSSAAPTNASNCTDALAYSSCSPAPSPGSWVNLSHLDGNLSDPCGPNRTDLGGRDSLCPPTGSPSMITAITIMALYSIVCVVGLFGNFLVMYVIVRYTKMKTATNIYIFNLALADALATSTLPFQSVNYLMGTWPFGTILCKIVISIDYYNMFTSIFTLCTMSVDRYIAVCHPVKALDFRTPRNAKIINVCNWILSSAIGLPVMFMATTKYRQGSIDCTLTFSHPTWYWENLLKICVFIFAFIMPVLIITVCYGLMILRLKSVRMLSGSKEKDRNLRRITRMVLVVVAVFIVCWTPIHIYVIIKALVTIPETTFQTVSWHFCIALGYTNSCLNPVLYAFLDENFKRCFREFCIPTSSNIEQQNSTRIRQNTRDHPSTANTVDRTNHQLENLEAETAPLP
# [3] = target: 5-hydroxytryptamine receptor 5A (Homo sapiens, UniProt P47898); test: Counterscreen for agonists of OPRM1-OPRD1 heterodimerization: luminescence-based cell-based high throughput dose response assay to identify agonists of 5-hydroxytryptamine (serotonin) 5A receptor (HTR5A). [Related pubchem assays (depositor defined):AID504326, AID504355, AID504692, AID504904, AID504905]; type: functional
# Chain of 5-hydroxytryptamine receptor 5A (P47898 whole entry): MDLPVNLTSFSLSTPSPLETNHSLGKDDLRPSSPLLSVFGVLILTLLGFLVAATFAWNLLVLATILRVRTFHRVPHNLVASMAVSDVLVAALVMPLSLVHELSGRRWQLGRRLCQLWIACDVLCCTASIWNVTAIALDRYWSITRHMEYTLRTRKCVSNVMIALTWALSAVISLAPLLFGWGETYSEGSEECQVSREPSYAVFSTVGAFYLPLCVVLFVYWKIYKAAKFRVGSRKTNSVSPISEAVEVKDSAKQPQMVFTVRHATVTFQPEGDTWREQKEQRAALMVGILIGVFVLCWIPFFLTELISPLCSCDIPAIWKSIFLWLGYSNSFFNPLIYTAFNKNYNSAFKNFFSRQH
# Trypsin = Trypsin (Sus scrofa, UniProt P00761); test: porcine trypsin inhibitors, dose response, selectivity assay for Rce1 protease inhibitor project, biochemical, quenched peptide fluorescence, cherry-pick (AID 488789)
# Chain of Trypsin (P00761 whole entry): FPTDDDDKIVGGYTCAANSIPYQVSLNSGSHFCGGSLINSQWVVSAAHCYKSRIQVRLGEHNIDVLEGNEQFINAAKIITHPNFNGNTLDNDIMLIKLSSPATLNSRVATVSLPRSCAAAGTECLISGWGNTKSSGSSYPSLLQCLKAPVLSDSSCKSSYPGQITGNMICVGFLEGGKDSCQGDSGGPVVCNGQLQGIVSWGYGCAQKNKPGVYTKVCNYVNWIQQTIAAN
# CAAX prenyl protease 2 [4] = target: T2, CAAX prenyl protease 2 (Saccharomyces cerevisiae S288c, UniProt Q03530); type: biochemical
# T2 sequence (Q03530 whole entry): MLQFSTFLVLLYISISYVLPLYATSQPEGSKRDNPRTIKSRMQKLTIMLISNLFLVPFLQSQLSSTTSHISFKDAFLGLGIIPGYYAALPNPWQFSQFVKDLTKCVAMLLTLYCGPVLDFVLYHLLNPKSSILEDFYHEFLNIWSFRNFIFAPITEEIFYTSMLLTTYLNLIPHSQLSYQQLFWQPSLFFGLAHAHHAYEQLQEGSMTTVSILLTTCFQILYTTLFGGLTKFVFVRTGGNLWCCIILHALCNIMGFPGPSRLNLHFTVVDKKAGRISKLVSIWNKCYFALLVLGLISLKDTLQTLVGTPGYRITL
# CAAX prenyl protease 1 = CAAX prenyl protease 1 (Saccharomyces cerevisiae S288c, UniProt P47154); test: Ste24 protease inhibitors, dose response, biochemical, S. cerevisiae, plate reader, cherry-pick (AID 488815)
# Chain of CAAX prenyl protease 1 (P47154 whole entry): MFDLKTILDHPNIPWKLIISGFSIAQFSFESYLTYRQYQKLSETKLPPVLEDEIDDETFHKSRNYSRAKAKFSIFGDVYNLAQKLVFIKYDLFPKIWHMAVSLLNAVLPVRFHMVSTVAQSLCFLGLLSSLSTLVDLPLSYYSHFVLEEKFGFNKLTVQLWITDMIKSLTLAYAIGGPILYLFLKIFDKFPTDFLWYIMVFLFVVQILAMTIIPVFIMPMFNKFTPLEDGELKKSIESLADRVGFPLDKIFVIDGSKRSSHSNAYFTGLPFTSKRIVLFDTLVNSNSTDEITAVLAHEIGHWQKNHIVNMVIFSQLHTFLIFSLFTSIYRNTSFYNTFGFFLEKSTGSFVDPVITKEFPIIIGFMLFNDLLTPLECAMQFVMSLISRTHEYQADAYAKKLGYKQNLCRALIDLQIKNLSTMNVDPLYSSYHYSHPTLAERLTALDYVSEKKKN
# [5] = target: T3, Endoribonuclease toxin MazF (Escherichia coli K-12, UniProt P0AE70); test: MazF toxin RNase activators, dose response, biochemical, fluorescence, single-stranded RNA substrate, uHTS hits (AID 588481); type: functional
# T3 sequence (P0AE70 whole entry): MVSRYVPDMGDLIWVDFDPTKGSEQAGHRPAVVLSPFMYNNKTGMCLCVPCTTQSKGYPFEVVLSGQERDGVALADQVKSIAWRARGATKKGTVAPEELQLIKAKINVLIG
# [6] = target: T3, Endoribonuclease toxin MazF; test: fluorescent RNA oligo signal without MazF, dose response, counter-screen for MazEF activator project, biochemical, fluorescence, single-stranded RNase substrate (AID 588502); type: functional
# Melanocortin receptor 4 = Melanocortin receptor 4 (Homo sapiens, UniProt P32245); type: functional, cell-based;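 note: Cell-based assay with luminescence read-out, confirmatory dose-response testing for agonist activity of biased ligands at MC4R; human U2OS cells with tagged receptor and beta-arrestin; potency of agonists that increase receptor coupling to beta-arrestin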
# Chain of Melanocortin receptor 4 (P32245 whole entry): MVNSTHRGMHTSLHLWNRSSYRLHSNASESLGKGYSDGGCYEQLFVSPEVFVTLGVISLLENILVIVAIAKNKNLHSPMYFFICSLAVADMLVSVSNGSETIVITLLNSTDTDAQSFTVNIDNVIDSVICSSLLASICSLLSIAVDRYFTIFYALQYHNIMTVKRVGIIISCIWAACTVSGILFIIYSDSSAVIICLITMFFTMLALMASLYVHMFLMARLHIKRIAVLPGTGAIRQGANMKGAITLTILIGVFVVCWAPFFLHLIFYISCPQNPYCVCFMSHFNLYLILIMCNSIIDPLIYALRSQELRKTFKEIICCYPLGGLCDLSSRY
# CAAX prenyl protease 2 [7] = target: CAAX prenyl protease 2 (Homo sapiens, UniProt Q9Y256); test: human Rce1 protease inhibitors, dose response, biochemical, yeast membranes, quenched-peptide fluorescence, cherry-pick (AID 588849)
# Chain of CAAX prenyl protease 2 (Homo sapiens, UniProt Q9Y256) (Q9Y256 whole entry): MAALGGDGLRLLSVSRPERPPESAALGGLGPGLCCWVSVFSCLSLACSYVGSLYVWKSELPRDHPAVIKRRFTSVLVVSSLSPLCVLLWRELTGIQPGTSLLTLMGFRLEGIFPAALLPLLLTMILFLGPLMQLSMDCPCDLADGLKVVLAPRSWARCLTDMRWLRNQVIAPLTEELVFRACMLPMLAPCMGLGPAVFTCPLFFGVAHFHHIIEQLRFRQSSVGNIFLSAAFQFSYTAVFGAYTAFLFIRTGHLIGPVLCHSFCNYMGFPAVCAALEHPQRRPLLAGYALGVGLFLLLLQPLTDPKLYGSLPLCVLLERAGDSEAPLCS
# Nonstructural protein 1 = Nonstructural protein 1 (Influenza A virus, UniProt Q194T2); type: functional, Influenza A virus (A/California/07/2009(H1N1))
# Chain of Nonstructural protein 1 (Q194T2 whole entry): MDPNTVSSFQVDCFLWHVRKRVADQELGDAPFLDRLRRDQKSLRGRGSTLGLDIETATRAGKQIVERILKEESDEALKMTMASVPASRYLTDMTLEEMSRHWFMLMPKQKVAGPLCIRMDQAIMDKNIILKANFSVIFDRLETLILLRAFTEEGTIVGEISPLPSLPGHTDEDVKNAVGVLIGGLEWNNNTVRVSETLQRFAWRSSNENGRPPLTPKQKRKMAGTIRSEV
# Vero = test: Vero E6 cell cytotoxicity, dose response, cytotoxicity control (AID 540298); type: functional; settings: Chlorocebus sabaeus
# MDCK [8] = test: MDCK cell cytotoxicity, dose response, cytotoxicity control (AID 540296); type: functional; settings: Canis lupus familiaris
# MDCK [9] = test: antiviral activity against H1N1 influenza, dose response, cell-based, strain KY136 (AID 540257); type: functional; settings: Canis lupus familiaris
# [10] = inhibitors of intracellular T. cruzi replication, confirmation, NIH3T3 host cells, beta-gal luminescence (AID 2044); type: functional, cell-based;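 note: intracellular parasites grown in NIH/3T3 mouse fibroblasts as host cells; luminescent beta-galactosidase reporter signal from transgenic T. cruzi replicating inside host cells; inhibitors lower the luminescence signal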
# [11] = cytotoxicity toward NIH3T3 fibroblasts, dose response, counter-screen, cell-based, ATP luminescence, mouse fibroblasts (AID 2010); type: functional;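 note: cells exposed to compound for about 90 hours before reading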
# HEK293 [12] = test: cells; settings: Homo sapiens
# HEK293 [13] = test: cells; settings: Homo sapiens; remark: listed apart in the source
# A-375 [14] = test: MITF: Counter assay: A375 proliferation Measured in Cell-Based System Using Plate Reader - 2084-03_Inhibitor_Dose_DryPowder_Activity. [Related pubchem assays (depositor defined):AID488944]; type: functional; settings: Homo sapiens
# A-375 [15] = test: A375 melanoma cell viability reduction, dose response, counter-screen for MITF modulator project, cherry-pick samples, set 2 (AID 540335); type: functional, cell-based; settings: Homo sapiens
# [16] = Luminescence-based dose response cell-based high throughput screening assay for cytotoxic compounds using the IEC-6 intestinal epithelial cell line. [Related pubchem assays: 1858 (Summary AID.), 1825 (Counterscreen.), 1907 (Confirmation screen.)]; type: functional
# [17] = THP-1 cell cytotoxicity, dose response, cytotoxicity control for non-replicating M. tuberculosis project (AID 489025); type: functional
# [18] = HepG2 cell cytotoxicity, dose response, cytotoxicity control for non-replicating M. tuberculosis project (AID 489018); type: functional; settings: Mycobacterium tuberculosis
# [19] = Vero E6 cell cytotoxicity, dose response, cytotoxicity control for non-replicating M. tuberculosis project, secondary assay (AID 492998); type: functional, VeroE6; settings: Vero C1008
# cells = type: functional
# Paired box protein Pax-8 = Paired box protein Pax-8 (Homo sapiens, UniProt Q06710); test: inhibitors of PAX8-driven TPO luciferase reporter, dose response, RMG-I cells, cherry-pick (AID 687027); type: functional, cell-based;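 note: luciferase reporter driven by Pax8 target thyroperoxidase promoter measured by SteadyGlo luminescence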
# Chain of Paired box protein Pax-8 (Q06710 whole entry): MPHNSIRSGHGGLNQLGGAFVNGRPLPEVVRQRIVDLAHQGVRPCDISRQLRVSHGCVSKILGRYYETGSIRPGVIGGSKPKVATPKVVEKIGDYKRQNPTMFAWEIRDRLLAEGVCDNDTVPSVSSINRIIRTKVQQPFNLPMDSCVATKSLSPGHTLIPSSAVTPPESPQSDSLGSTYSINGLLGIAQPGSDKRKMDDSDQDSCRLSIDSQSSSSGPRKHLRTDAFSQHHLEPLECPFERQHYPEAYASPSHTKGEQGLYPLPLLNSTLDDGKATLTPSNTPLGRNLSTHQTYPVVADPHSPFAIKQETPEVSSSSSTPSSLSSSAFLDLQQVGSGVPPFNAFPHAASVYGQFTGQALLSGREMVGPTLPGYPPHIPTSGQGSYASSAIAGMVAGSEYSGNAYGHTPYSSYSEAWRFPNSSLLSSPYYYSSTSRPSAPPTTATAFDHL
# Escherichia coli [20] = test: microbe, parasite or virus in culture
# Escherichia coli [21] = test: microbe, parasite or virus in culture; remark: listed apart in the source
compound,measurement,setting,value
Cc1ccc(Cl)cc1NC(=O)CNCC(c1ccccc1)N(C)C (configuration not stated),EC50,[1],0.376 µM (active)
same,EC50,[2],> 92.5 µM (inactive)
same,EC50,Mu-type opioid receptor,> 92.5 µM (inactive)
same,EC50,[3],> 92.5 µM (inactive)
Cc1nc(NC(=O)c2cccc(-c3cc4ccccc4oc3=O)c2)ccc1Br,AC50,Trypsin,16.6 µM (active)
same,AC50,CAAX prenyl protease 2 [4],> 100 µM (inactive)
same,AC50,CAAX prenyl protease 1,11.9 µM (active)
same,EC50,[5],> 99 µM (inactive)
same,EC50,[6],> 99 µM (inactive)
same,EC50,Melanocortin receptor 4,> 89.2 µM (inactive)
CCc1cc(=O)oc2cc(OCC(=O)N3CCC(C(=O)O)CC3)ccc12,AC50,CAAX prenyl protease 2 [4],31.9 µM (active)
same,AC50,CAAX prenyl protease 2 [7],14.3 µM (active)
CCc1ccccc1NC(=O)CSc1nc2nnc(C)c-2c(N)n1-c1cccc(OC)c1,IC50,Nonstructural protein 1,> 100 µM (active)
same,CC50,Vero,24.4 µM (active)
same,CC50,MDCK [8],35.7 µM (active)
same,IC50,MDCK [9],7.75 µM (active)
Cc1cc(C)nc(SC2c3cccc4cccc(c34)C2NS(=O)(=O)c2ccccc2)n1 (configuration not stated),EC50,[10],1.87 µM (active)
same,EC50,[11],12.8 µM (active)
same,EC50,HEK293 [12],> 59.6 µM (inactive)
same,EC50,HEK293 [13],> 59.6 µM (inactive)
Cc1csc(NC(=O)Cc2c(F)cccc2Cl)n1,AC50,A-375 [14],> 35 µM (active)
same,AC50,A-375 [15],> 35 µM (active)
CN1CCc2c(sc(NC(=O)c3ccc([N+](=O)[O-])o3)c2C(N)=O)C1,EC50,[10],1.26 µM (active)
same,IC50,[16],0.879 µM (active)
same,EC50,[11],3.92 µM (active)
same,CC50,[17],1.21 µM (active)
same,CC50,[18],2.55 µM (active)
same,CC50,[19],0.54 µM (active)
same,IC50,cells,17.6 µM (active)
same,AC50,Paired box protein Pax-8,1.67 µM (active)
same,AC50,Escherichia coli [20],23.2 µM (active)
same,AC50,Escherichia coli [21],26.4 µM (active)
